This test concerns the target T1, Human S1P3 receptor (Homo sapiens, UniProt Q99500).
T1 construct: expressed in transfected cells; host or cells: CHO cells (Geneticin-selected)
The test is described as follows: Suppression of S1P-induced cellular calcium mobilization in human S1P3 receptor-expression CHO cells (Schild plot). Format: cell-based. To be noted: Schild plot of S1P EC50 shift; test compound 125 nM, 1.25 μM, 12.5 μM; hS1P3 CHO cells; read-out: S1P3 dissociation constant Kd value. As for the experimental part:
Suppression Effect of Test Compound Against Cellular Calcium Mobilization of Human S1P3 Receptor-Expression Cell by S1P (Sphingosine 1-Phosphoric Acid)
Human S1P3 receptor-expression CHO cells were subcultured in a Ham's F-12 culture medium containing 10% fetal bovine serum, and 300 μg/mL of Geneticin. The human S1P3 receptor-expression CHO cells were subjected to 0.25% trypsinization, then recovered from the dish, and floated in a Ham's F-12 culture medium containing 10% fetal bovine serum, and 300 μg/mL of Geneticin. After that, the human S1P3 receptor-expression CHO cells were disseminated into a 96-well black clear bottom plate (BD Falcon Biocoat) so that 7×10^4/100 μL/well of the human S1P3 receptor-expression CHO cells were disseminated. And then, the human S1P3 receptor-expression CHO cells were cultivated for one night at 37° C. under 5% CO2. The next day, the wells were washed 3 times with 100 μL of PBS containing 0.1% fatty acid-free bovine serum albumin (BSA). The culture medium was exchanged with a Ham's F-12 culture medium containing 0.1% BSA, and then starved of serum for 6 hours in an CO2 incubator at 37° C.
The culture medium was thrown away after the 6 hours. Then, 50 μL/well of a Fluo3 loading buffer was added, and the cultures were cultivated for further 1 hour. The Fluo3 loading buffer was prepared as follows. First, equal amounts of Fluo3-AM (Dojindo) and pluronic F-127 (20% DMSO solution, invitrogen) were mixed. Next, the mixture of Fluo3-AM and pluronic F-127 was added to a Hanks-HEPES buffer (balanced salt solution containing 20 mM HEPES (pH, 7.4), 0.1% BSA (fatty acid-free), and 2.5 mM probenecid) to form a Fluo3 loading buffer having a final Fluo3-AM concentration of 4
After incubating for 1 hour, the cultures were washed 3 times with 100 μL of the Hanks-HEPES buffer. Then, 100 μL of the same buffer in which a test compound (125 nM, 1.25 μM, 12.5 μM) or DMSO had been dissolved was added to the cultures, and then incubated for 30 minutes at 37° C. in a microplate spectrophotofluorometer (FLEX Station) (Molecular Device Co., Ltd.). Then, 25 μL of S1P prepared at 5 times the concentration of the final concentration by serial dilution (final concentration of 0.1 nM, 1 nM, 10 nM, 100 nM, and 1 μM) was added, and the fluorescence based on the Fluo3 due to calcium mobilization was detected and measured at an excitation wavelength of 485 nm and a detection wavelength of 525 nm using the same apparatus. Based on the measurement data, the increase in fluorescence was calculated by subtracting the minimum fluorescence intensity from the maximum fluorescence intensity. The measured increase in fluorescence was used to perform a curve approximation of the relationship between the S1P concentration and the increase in fluorescence using PRISM 4 software (GraphPad). Based on the results, the EC50 value of the compound-untreated and the EC50 value of the compound-treated at each concentration were calculated. Schild Plot analysis was performed based on these values to determine dissociation constant Kd value. In Table 1, 1,000 nmol/L>Kd value≧100 nmol/L is indicated as “+,” 100 nmol/L>Kd value≧10 nmol/L is indicated as “++,” 10 nmol/L>Kd value≧1 nmol/L is indicated as “+++,” and 1 nmol/L>Kd value is indicated as “++++.”
For orientation: A change in cytosolic calcium serves as a functional read-out for many receptors and channels.
T1 sequence (Q99500 whole entry): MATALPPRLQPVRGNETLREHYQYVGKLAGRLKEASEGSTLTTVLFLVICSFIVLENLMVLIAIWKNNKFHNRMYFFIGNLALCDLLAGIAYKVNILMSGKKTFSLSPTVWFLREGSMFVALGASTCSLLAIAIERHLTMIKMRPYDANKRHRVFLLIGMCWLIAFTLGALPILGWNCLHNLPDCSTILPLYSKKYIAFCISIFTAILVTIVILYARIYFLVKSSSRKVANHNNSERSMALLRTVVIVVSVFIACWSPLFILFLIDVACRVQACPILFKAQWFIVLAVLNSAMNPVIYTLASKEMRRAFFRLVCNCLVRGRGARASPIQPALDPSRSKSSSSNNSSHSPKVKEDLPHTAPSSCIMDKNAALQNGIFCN
On to `Cc1ccc(O)c(Sc2ccc(CC[C@](C)(N)COP(=O)(O)O)c(Cl)c2)c1` [Example 1, (S)-2-amino-4-[2-chloro-4-(2-hydroxy-5-methylphenylthio)phenyl]-2-methylbutylphosphoric acid monoester], for which the Kd (as a rule, the free concentration of one partner at which half of the binding sites on the other are occupied at equilibrium, for simple one-to-one binding) is 0.01 to 0.1 µM.

Turning to `CCc1ccc(O)c(Sc2ccc(CC[C@](C)(N)COP(=O)(O)O)c(Cl)c2)c1` [Example 2, (S)-2-amino-4-[2-chloro-4-(5-ethyl-2-hydroxyphenylthio)phenyl]-2-methylbutylphosphoric acid monoester], the Kd lay within 0.01 to 0.1 µM.

With `CCCc1ccc(O)c(Sc2ccc(CC[C@](C)(N)COP(=O)(O)O)c(Cl)c2)c1` [Example 3, (S)-2-amino-4-[2-chloro-4-(2-hydroxy-5-propylphenylthio)phenyl]-2-methylbutylphosphoric acid monoester], the Kd lay within 0.01 to 0.1 µM.

Take `CC(C)c1ccc(O)c(Sc2ccc(CC[C@](C)(N)COP(=O)(O)O)c(Cl)c2)c1` [Example 4]: the Kd lay within 0.001 to 0.01 µM.

As for `C[C@](N)(CCc1ccc(Sc2cc(C3CC3)ccc2O)cc1Cl)COP(=O)(O)O` [Example 5, (S)-2-amino-4-[2-chloro-4-(5-cyclopropyl-2-hydroxyphenylthio)phenyl]-2-methylbutylphosphoric acid monoester], the Kd fell in the range of 0.001 to 0.01 µM.

On to `COc1ccc(O)c(Sc2ccc(CC[C@](C)(N)COP(=O)(O)O)c(Cl)c2)c1` [Example 6, (S)-2-amino-4-[2-chloro-4-(2-hydroxy-5-methoxyphenylthio)phenyl]-2-methylbutylphosphoric acid monoester], for which the Kd is 0.1 to 1 µM.

As for `CCOc1ccc(O)c(Sc2ccc(CC[C@](C)(N)COP(=O)(O)O)c(Cl)c2)c1` [Example 7, (S)-2-amino-4-[2-chloro-4-(5-ethoxy-2-hydroxyphenylthio)phenyl]-2-methylbutylphosphoric acid monoester], the Kd lay in the range of 0.01 to 0.1 µM.

Regarding `CC(C)Oc1ccc(O)c(Sc2ccc(CC[C@](C)(N)COP(=O)(O)O)c(Cl)c2)c1` [Example 8, (S)-2-amino-4-[2-chloro-4-(2-hydroxy-5-isopropoxyphenylthio)phenyl]-2-methylbutylphosphoric acid monoester], the Kd fell in the range of 0.01 to 0.1 µM.

As to `C[C@](N)(CCc1ccc(Sc2cc(OCc3ccccc3)ccc2O)cc1Cl)COP(=O)(O)O` [Example 9, (S)-2-amino-4-[4-(5-benzyloxy-2-hydroxyphenylthio)-2-chlorophenyl]-2-methylbutylphosphoric acid monoester], the Kd was in the range of 0.001 to 0.01 µM.

As to `C[C@](N)(CCc1ccc(Sc2cc(Cl)ccc2O)cc1Cl)COP(=O)(O)O` [Example 10, (S)-2-amino-4-[2-chloro-4-(5-chloro-2-hydroxyphenylthio)phenyl]-2-methylbutylphosphoric acid monoester], the Kd fell in the range of 0.01 to 0.1 µM.

Take `C[C@](N)(CCc1ccc(Sc2ccccc2O)cc1Cl)COP(=O)(O)O` [Example 14, (S)-2-amino-4-[2-chloro-4-(2-hydroxyphenylthio)phenyl]-2-methylbutylphosphoric acid monoester]: the Kd was in the range of 0.01 to 0.1 µM.

As for `CC(=O)c1ccc(O)c(Sc2ccc(CC[C@](C)(N)COP(=O)(O)O)c(Cl)c2)c1` [Example 16, (S)-4-[4-(5-acetyl-2-hydroxyphenylthio)-2-chlorophenyl]-2-amino-2-methylbutylphosphoric acid monoester], the Kd is 0.01 to 0.1 µM.

On to `C[C@](N)(CCc1ccc(Sc2cc(C(F)(F)F)ccc2O)cc1Cl)CCP(=O)(O)O` [Example 17, (S)-3-amino-5-[2-chloro-4-(2-hydroxy-5-trifluoromethylphenylthio)phenyl]-3-methylpentylphosphonic acid], for which the Kd is 0.1 to 1 µM.

As to `CCCc1ccc(O)c(Sc2ccc(CC[C@@](N)(CCC)COP(=O)(O)O)c(Cl)c2)c1` [Example 18, (S)-2-amino-4-[2-chloro-4-(2-hydroxy-5-propylphenylthio)phenyl]-2-propylbutylphosphoric acid monoester], the Kd was 0.001 to 0.01 µM.

For the origin of these results see patent US8569270B2, “Diphenyl sulfide derivatives and medicines containing same as active ingredient” (Kyorin Pharmaceutical Co., Ltd., priority 2009, dated 2013).
